Measured values as given in EP1184030A1, “Antibacterial composition comprising trimethylnorbornanylcyclohexanol derivatives” (Givaudan SA, priority 2000, dated 2002).
Converted amounts (≈) assume the structure as drawn. Read-outs that look alike come from different tables or passages of the source. Blank lines part the entries; values can stand above or below the compound they belong to.

Legend:
[1] = system: Ax 15 Corynebacterium jeikeium; test: MIC microtiter plate test, axilla bacteria; assay type: cell-based; conditions: for MIC: Corynebacterium jeikeium
Text: (§1) The different bacterial strains had been isolated from the human axilla by current microbiological practice. They were taxonomically identified by cell morphology, gram-reaction and biochemical tests included in the Api coryne test kit (BioMerieux, France). Strain Staphylococcus epidermidis Ax25 was identified by fatty acid methyl ester analysis (FAME; German type strain collection DSMZ, Germany). The strains were maintained on Tryptic soy broth plates, this standard medium being amended with 5 g per Litre of Tween 80 and 1 g of Soybean lecithin. Plates were incubated at 36° C for a period 48 hours. The bacteria were then swabbed from the plates and suspended in 4 ml of Müller-Hinton broth amended with 100 mg of Tween80 per Litre (MH-Tween) and incubated again at 36° C for 16 hours. Following incubation the bacterial suspensions were diluted in MH-Tween to obtain a final cell density of 10^6 colony forming units per ml. For each fragrance material four microtiter plates were used in the example, each microtiter plate having 8 rows, A-H, and 12 columns, 1-12. To each column a diluted suspension of a different test organism was distributed, 100 µl per well. 1% stock solutions of the fragrance materials were then prepared in MH-Tween broth. The fragrance material was dispersed by ultrasonication into the aqueous medium to obtain a homogenous emulsion. 100 µl per well of this emulsion was then added to the first row of the microtiter plates already containing the target organisms. Serial dilution series were then prepared starting at row A and continuing until row G, each time removing 100 µl from a well and transferring it to the next well. In this way fragrance concentrations of 0.5%, 0.25%, 0.125%, 0.0625%, 0.03125%, 0.0156% and 0.0078% were tested for their antibacterial efficacy. The reference compound Triclosan was tested at 16 fold lower concentrations. The plates were covered with plastic films and incubated for 24 h at 36° C with shaking at 250 rpm. The turbidity developing in the microtiter plates was then examined after 24 h to determine microbial growth. The minimal concentration of fragrance inhibiting the growth of an organism by at least 80% was determined as the minimal inhibitory concentration (MIC).
(§2) Ax 25 was identified as Staphylococcus epidermidis by FAME analysis. Identification with the Api Coryne test kit yielded the following species assignments for the remainder of the strains: Ax 26 Corynebacterium sp.; Ax 3 Corynebacterium bovis; Ax 7 Corynebacterium group G; Ax 10 Corynebacterium jeikeium; Ax 11 Corynebacterium jeikeium; Ax 12 Corynebacterium jeikeium; Ax 15 Corynebacterium jeikeium; Ax 20 Corynebacterium striatum/amycolatum; Ax 19 Corynebacterium jeikeium. The strains were isolated from the axilla of 8 human volunteers. Based on biochemical tests and colony morphology all strains were distinct from each other, even the several strains all belonging to Corynebacterium jeikeium.

[2] = system: Ax 7 Corynebacterium group G; test: MIC microtiter plate test, axilla bacteria; assay type: cell-based; conditions: for MIC: Corynebacterium
Text: as §1, §2

[3] = system: Staphylococcus epidermidis Ax25; test: MIC microtiter plate test, axilla bacteria; assay type: cell-based; conditions: for MIC: Staphylococcus epidermidis, AX25
Text: as §1, §2

Vapour pressure = assay type: physicochemical
Text: Odoriferous substances are by definition volatile compounds which evaporate from the skin and therefore loose their deodorising effect. Furthermore small water-soluble fragrance compounds can get dissolved in sweat and are thus rapidly diluted under conditions of high sweat secretion which further reduces the duration of the deodorising effect. Therefore a low water solubility indicated by a high LogP value and a low volatility indicated by low vapour pressure are desired for odoriferous substances which are used for their antibacterial activity.

Corynebacteria = test: MIC microtiter plate test, Corynebacteria; assay type: cell-based
Text: The different bacterial strains had been isolated from the human axilla by current microbiological practice. They were taxonomically identified by cell morphology, gram-reaction and biochemical tests included in the Api coryne test kit (BioMerieux, France). Strain Staphylococcus epidermidis Ax25 was identified by fatty acid methyl ester analysis (FAME; German type strain collection DSMZ, Germany). The strains were maintained on Tryptic soy broth plates, this standard medium being amended with 5 g per Litre of Tween 80 and 1 g of Soybean lecithin. Plates were incubated at 36° C for a period 48 hours. The bacteria were then swabbed from the plates and suspended in 4 ml of Müller-Hinton broth amended with 100 mg of Tween80 per Litre (MH-Tween) and incubated again at 36° C for 16 hours. Following incubation the bacterial suspensions were diluted in MH-Tween to obtain a final cell density of 10^6 colony forming units per ml. For each fragrance material four microtiter plates were used in the example, each microtiter plate having 8 rows, A-H, and 12 columns, 1-12. […]
Since sandela is known to be a mixture of different reaction products, commercial sandela was subjected to a distillation process. […] The different fractions were evaluated for their antimicrobial activity (Table 6) with the method described in example 1. […]

[4] = system: Ax 20 Corynebacterium striatum/amycolatum; test: MIC microtiter plate test, axilla bacteria; assay type: cell-based; conditions: Ax20, growth inhibition by at least 80%, 24 h at 36° C
Text: as §1, §2

[5] = system: Ax 12 Corynebacterium jeikeium; test: MIC microtiter plate test, axilla bacteria; assay type: cell-based; conditions: Ax12, growth inhibition by at least 80%, 24 h at 36° C
Text: as §1, §2

[6] = system: Ax 10 Corynebacterium jeikeium; test: MIC microtiter plate test, axilla bacteria; assay type: cell-based; conditions: Ax10, growth inhibition by at least 80%, 24 h at 36° C
Text: as §1, §2

[7] = system: Ax 3 Corynebacterium bovis; test: MIC microtiter plate test, axilla bacteria; assay type: cell-based; conditions: Ax3, growth inhibition by at least 80%, 24 h at 36° C
Text: as §1, §2

[8] = system: Ax 11 Corynebacterium jeikeium; test: MIC microtiter plate test, axilla bacteria; assay type: cell-based; conditions: Ax11, growth inhibition by at least 80%, 24 h at 36° C
Text: as §1, §2

[9] = system: Ax 26 Corynebacterium sp.; test: MIC microtiter plate test, axilla bacteria; assay type: cell-based; conditions: for MIC: Corynebacterium
Text: as §1, §2

[10] = Table 7, Corynebact. Ax15, 24 hours
[11] = Table 8, Corynebact. Ax15, 24 hours
[12] = Table 7, Corynebact. Ax7, 24 hours
[13] = Table 8, Corynebact. Ax7, 24 hours
[14] = Table 7, S. epidermidis, 24 hours
[15] = Table 8, S. epidermidis, 24 hours
[16] = Ax15, growth inhibition by at least 80%, 24 h at 36° C
[17] = Ax7, growth inhibition by at least 80%, 24 h at 36° C
[18] = Ax 25, growth inhibition by at least 80%, 24 h at 36° C
[19] = Corynebacterium jeikeium, read-out: Minimal inhibitory concentration (MIC)

vapour pressure (Vapour pressure): about 2.2 µg/L
SMILES: CC1C2CC(CC2C2CCCCC2O)C1(C)C (stereo not shown) [2-(5,5,6-trimethylbicyclo[2.2.1]hept-2-yl)-cyclohexanol]

vapour pressure (Vapour pressure): about 2.2 µg/L
SMILES: CC1C2CC(CC2C2CCCC(O)C2)C1(C)C (stereo not shown) [3-(5,5,6-trimethylbicyclo[2.2.1]hept-2-yl)-cyclohexanol]

vapour pressure (Vapour pressure): about 2.2 µg/L
SMILES: CC1C2CC(CC2C2CCC(O)CC2)C1(C)C (stereo not shown) [4-(5,5,6-trimethylbicyclo[2.2.1]hept-2-yl)-cyclohexanol]

Minimal inhibitory concentration (MIC) [1, 16]: 0.2500 % weight/ volume
Minimal inhibitory concentration (MIC) [4]: 0.1250 % weight/ volume
Minimal inhibitory concentration (MIC) [2, 17]: 0.1250 % weight/ volume
Minimal inhibitory concentration (MIC) [5]: 0.2500 % weight/ volume
Minimal inhibitory concentration (MIC) [3, 18]: 0.1250 % weight/ volume
Minimal inhibitory concentration (MIC) [6]: 0.2500 % weight/ volume
Minimal inhibitory concentration (MIC) [7]: 0.1250 % weight/ volume
Minimal inhibitory concentration (MIC) [8]: 0.2500 % weight/ volume
SMILES: CC1=CCC(/C=C\C(C)C(C)O)C1(C)C (stereo not shown) [Ebanol]

vapour pressure (Vapour pressure): 109 µg/L
SMILES: C=CCc1ccc(O)c(OC)c1 [Eugenol]

Minimal inhibitory concentration (MIC) [1, 16]: 0.2500 % weight/ volume
Minimal inhibitory concentration (MIC) [4]: 0.1250 % weight/ volume
Minimal inhibitory concentration (MIC) [2, 17]: 0.1250 % weight/ volume
Minimal inhibitory concentration (MIC) [5]: 0.1250 % weight/ volume
Minimal inhibitory concentration (MIC) [3, 18]: 0.1250 % weight/ volume
Minimal inhibitory concentration (MIC) [6]: 0.1250 % weight/ volume
Minimal inhibitory concentration (MIC) [7]: 0.1250 % weight/ volume
Minimal inhibitory concentration (MIC) [8]: 0.1250 % weight/ volume
SMILES: CC1=CCC(CCC(C)C(C)O)C1(C)C (stereo not shown) [Sandalore]

Second part, the compound before the results:

SMILES: COC1CC(C2CC3CC2C(C)C3(C)C)CCC1O (single isomer, unassigned; peak a) [Peak A]
Bacteriostatic activity (concentration needed for at least 80% reduction in growth) [1, 10]: 0.0048 percent (w/v)
Bacteriostatic activity (concentration needed for at least 80% reduction in growth) [1, 11]: 0.0048 percent (w/v)
Bacteriostatic activity (concentration needed for at least 80% reduction in growth) [2, 12]: 0.0048 percent (w/v)
Bacteriostatic activity (concentration needed for at least 80% reduction in growth) [2, 13]: 0.0048 percent (w/v)
Bacteriostatic activity (concentration needed for at least 80% reduction in growth) [3, 14]: 0.0040 percent (w/v)
Bacteriostatic activity (concentration needed for at least 80% reduction in growth) [3, 15]: 0.0040 percent (w/v)

SMILES: COC1CC(C2CC3CC2C(C)C3(C)C)CCC1O (single isomer, unassigned; peak b) [Peak B]
Bacteriostatic activity (concentration needed for at least 80% reduction in growth) [1, 10]: 0.0028 percent (w/v)
Bacteriostatic activity (concentration needed for at least 80% reduction in growth) [1, 11]: 0.0028 percent (w/v)
Bacteriostatic activity (concentration needed for at least 80% reduction in growth) [2, 12]: 0.0028 percent (w/v)
Bacteriostatic activity (concentration needed for at least 80% reduction in growth) [2, 13]: 0.0028 percent (w/v)
Bacteriostatic activity (concentration needed for at least 80% reduction in growth) [3, 14]: 0.0023 percent (w/v)
Bacteriostatic activity (concentration needed for at least 80% reduction in growth) [3, 15]: 0.0023 percent (w/v)

SMILES: COC1CC(C2CC3CC2C(C)C3(C)C)CCC1O (stereo not shown) [2-methoxy-4-(5,5,6-trimethylbicyclo[2.2.1]hept-2-yl)cyclohexan-1-ol]
activity against Corynebacteria (Corynebacteria): highest activity

SMILES: COC1CCC(C2CC3CC2C(C)C3(C)C)CC1O (stereo not shown) [2-methoxy-5-(5,5,6-trimethyl-bicyclo[2.2.1]hept-2-yl)cyclohexan-1-ol]
activity against Corynebacteria (Corynebacteria): highest activity

SMILES: CC(C)=CCCC(C)=CCCC(C)=CCO [Farnesol, 3,7,11-trimethyl-2,6,10-dodecatrien-1-ol]
MIC ([1]; Ax15, growth inhibition by at least 80%, 24 h at 36° C, read-out: Minimal inhibitory concentration (MIC)): 156 µg/mL (≈ 702 µM)
MIC ([1]; Table 7, Corynebact. Ax15, 24 hours, read-out: Bacteriostatic activity (concentration needed for at least 80% reduction in growth)): 156 µg/mL (≈ 702 µM)
Bacteriostatic activity (concentration needed for at least 80% reduction in growth) [1, 11]: 0.0156 percent (w/v)
MIC ([4]; Corynebacterium striatum, read-out: Minimal inhibitory concentration (MIC)): 137 µg/mL (≈ 616 µM)
MIC ([2]; Ax7, growth inhibition by at least 80%, 24 h at 36° C, read-out: Minimal inhibitory concentration (MIC)): 137 µg/mL (≈ 616 µM)
MIC ([2]; Table 7, Corynebact. Ax7, 24 hours, read-out: Bacteriostatic activity (concentration needed for at least 80% reduction in growth)): 137 µg/mL (≈ 616 µM)
Bacteriostatic activity (concentration needed for at least 80% reduction in growth) [2, 13]: 0.0137 percent (w/v)
MIC [5, 19]: 137 µg/mL (≈ 616 µM)
MIC ([3]; Ax 25, growth inhibition by at least 80%, 24 h at 36° C, read-out: Minimal inhibitory concentration (MIC)): 156 µg/mL (≈ 702 µM)
MIC ([3]; Table 7, S. epidermidis, 24 hours, read-out: Bacteriostatic activity (concentration needed for at least 80% reduction in growth)): 156 µg/mL (≈ 702 µM)
Bacteriostatic activity (concentration needed for at least 80% reduction in growth) [3, 15]: 0.0156 percent (w/v)
MIC [6, 19]: 78 µg/mL (≈ 351 µM)
MIC ([9]; Ax26, growth inhibition by at least 80%, 24 h at 36° C, read-out: Minimal inhibitory concentration (MIC)): 78 µg/mL (≈ 351 µM)
MIC ([9]; Table 7, Corynebact. Ax26, 24 hours, read-out: Bacteriostatic activity (concentration needed for at least 80% reduction in growth)): 78 µg/mL (≈ 351 µM)
Bacteriostatic activity (concentration needed for at least 80% reduction in growth) ([9]; Table 8, Corynebact. Ax26, 24 hours): 0.0078 percent (w/v)
MIC ([7]; Corynebacterium bovis, read-out: Minimal inhibitory concentration (MIC)): 156 µg/mL (≈ 702 µM)
MIC [8, 19]: 195 µg/mL (≈ 877 µM)
vapour pressure (Vapour pressure): 1.35 µg/L

SMILES: CCC(=CCC1CC=C(C)C1(C)C)CO (stereo not shown) [Radjanol]
Minimal inhibitory concentration (MIC) [1, 16]: 0.125. % weight/ volume
Minimal inhibitory concentration (MIC) [2, 17]: 0.0625 % weight/ volume
Minimal inhibitory concentration (MIC) [3, 18]: 0.1250 % weight/ volume
